Data on one compound can be found in US10927096B2, “Ester substituted ion channel blockers and methods for use” (Nocion Therapeutics, Inc., priority 2019, dated 2021).

The target of the assay is T1, NaV1.7 (Homo sapiens, UniProt Q15858).
T1 construct: expressed in transfected cells; host or cells: HEK293, tetracycline-inducible
The experiment in a line: Whole cell patch clamp, internal block of NaV1.7 current. The assay is classed as cell-based. Conditions: % inhibition at 1 μM test concentration, compound in internal solution, manual whole cell patch clamp. The method in brief:
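Tetracycline-induced cells recorded 18-24 h post-induction at room temperature, compound dissolved in CsCl internal solution (pH 7.2), Ringer bath pH 7.4. From −100 mV holding, 10 ms steps to −20 mV; baseline at 30 s intervals, then four 30 s trains at 5 Hz. Fraction current remaining = last-train peak/baseline, versus control-internal cells.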

T1 sequence (Q15858 whole entry): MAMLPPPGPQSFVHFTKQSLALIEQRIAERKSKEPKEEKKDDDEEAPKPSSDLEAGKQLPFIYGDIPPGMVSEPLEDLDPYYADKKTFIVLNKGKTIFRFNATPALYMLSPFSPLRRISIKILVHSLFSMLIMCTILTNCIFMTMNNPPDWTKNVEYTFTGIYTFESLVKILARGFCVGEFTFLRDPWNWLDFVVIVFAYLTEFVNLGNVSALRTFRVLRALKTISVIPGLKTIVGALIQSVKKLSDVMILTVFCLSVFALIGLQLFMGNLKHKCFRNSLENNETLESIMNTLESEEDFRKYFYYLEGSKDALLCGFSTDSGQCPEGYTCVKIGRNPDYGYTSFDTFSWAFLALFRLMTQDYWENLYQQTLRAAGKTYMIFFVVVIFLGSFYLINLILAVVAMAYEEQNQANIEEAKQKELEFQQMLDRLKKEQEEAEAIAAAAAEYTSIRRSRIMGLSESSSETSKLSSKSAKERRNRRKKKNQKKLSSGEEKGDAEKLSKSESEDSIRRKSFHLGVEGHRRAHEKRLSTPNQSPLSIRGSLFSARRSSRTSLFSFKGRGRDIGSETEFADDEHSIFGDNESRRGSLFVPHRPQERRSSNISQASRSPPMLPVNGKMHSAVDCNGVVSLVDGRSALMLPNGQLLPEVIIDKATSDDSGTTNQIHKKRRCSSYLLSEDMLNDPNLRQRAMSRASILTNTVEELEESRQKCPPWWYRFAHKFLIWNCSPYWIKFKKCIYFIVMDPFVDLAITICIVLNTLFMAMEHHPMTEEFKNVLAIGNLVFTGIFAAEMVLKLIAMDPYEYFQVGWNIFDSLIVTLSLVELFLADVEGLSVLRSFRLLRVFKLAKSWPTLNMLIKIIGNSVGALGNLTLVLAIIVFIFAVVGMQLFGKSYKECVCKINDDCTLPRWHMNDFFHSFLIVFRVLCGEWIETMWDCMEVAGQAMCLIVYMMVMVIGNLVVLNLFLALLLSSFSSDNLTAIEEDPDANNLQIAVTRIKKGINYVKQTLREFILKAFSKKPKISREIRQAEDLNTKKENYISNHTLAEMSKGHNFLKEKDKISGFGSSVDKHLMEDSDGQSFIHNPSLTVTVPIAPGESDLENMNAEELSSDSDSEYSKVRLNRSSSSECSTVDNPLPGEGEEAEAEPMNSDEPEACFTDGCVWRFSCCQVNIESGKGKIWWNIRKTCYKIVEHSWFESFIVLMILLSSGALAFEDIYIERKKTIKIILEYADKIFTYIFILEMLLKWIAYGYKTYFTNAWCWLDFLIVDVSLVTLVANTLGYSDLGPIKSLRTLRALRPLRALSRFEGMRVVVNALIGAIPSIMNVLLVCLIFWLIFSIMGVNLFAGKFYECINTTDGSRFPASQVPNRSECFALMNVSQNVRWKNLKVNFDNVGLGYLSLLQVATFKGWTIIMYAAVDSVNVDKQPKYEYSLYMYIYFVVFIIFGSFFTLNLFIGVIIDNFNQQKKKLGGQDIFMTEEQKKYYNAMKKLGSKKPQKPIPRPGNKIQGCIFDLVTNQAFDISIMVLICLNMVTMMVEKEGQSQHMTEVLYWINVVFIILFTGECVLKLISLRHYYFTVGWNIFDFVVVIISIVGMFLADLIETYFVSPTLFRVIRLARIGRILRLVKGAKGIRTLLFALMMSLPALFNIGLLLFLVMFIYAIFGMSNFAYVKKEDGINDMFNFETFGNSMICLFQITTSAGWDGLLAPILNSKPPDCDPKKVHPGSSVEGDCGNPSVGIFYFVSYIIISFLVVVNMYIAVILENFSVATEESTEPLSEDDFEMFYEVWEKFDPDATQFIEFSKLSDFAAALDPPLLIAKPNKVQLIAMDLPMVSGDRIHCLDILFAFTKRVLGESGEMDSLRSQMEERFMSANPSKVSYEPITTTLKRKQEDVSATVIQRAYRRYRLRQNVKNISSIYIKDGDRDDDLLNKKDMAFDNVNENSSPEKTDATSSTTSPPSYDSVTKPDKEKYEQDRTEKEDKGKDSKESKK

Take `Cc1cccc(C(=O)OC(C)(C)C)c1NC(=O)C[n+]1cccn1C1CCCCC1.[Br-]` [Compound 72]: the “NaV1.7 Intracellular Inhibition” value is listed as “++ (70-30%)”.
